For one assay, the system named is cyclin D1. Nature of the assay: Western blot of Cyclin D1 in SW480 whole cell lysates. Type of assay: cell-based, human. The conditions noted are these: SW480 cells, 25 μM, beginning at 4 hours, increasing at 24 hours. The protocol: FIG. 5. COMPOUND 1 inhibits the expression of cyclin D1. • A. Cyclin D1 levels are decreased with COMPOUND 1 treatment. Western blot analysis was performed on 25 μg of SW480 whole cell lysates treated for 4, 8, or 24 hours with either 25 μM of COMPOUND 1 or control (0.5% DMSO). Immunoblotting was performed using anti-Cyclin D1 antibodies (Santa Cruz Biotechnology Inc.). • B. In vivo occupancy of cyclin D1 and c-myc promoters by CBP and p300. […] ChIP assays were performed on promoter of c-myc from SW480 cells which was treated for 8 hours with COMPOUND 1 (25 μM) or control (0.5% DMSO). CBP (AC-26, a generous gift from Dr. David Livingston, Harvard University, Boston, Mass.) or p300 (C-20, Santa Cruz Biotechnology Inc.) specific antibodies were used to evaluate the promoter occupancy by CBP or p300 in presence of COMPOUND 1 or control (DMSO) treatment.
Immune complexes, from above, were separated on SDS-PAGE followed by transfer to immobilon-P membranes (PVDF) from (Millipore, Bedford, Mass.). […] Immunoblots were analyzed using an ECL detection kit (Amersham Pharmacia Biotech).
The β-actin gene was used to normalize the data. The ΔCycle of Threshold (CT) values were determined by subtracting the average values of each set from the corresponding average values obtained for the β-actin gene. […] Cyclin D1 protein levels in cells were also evaluated. […]
For orientation: Immunoblotting shows a protein as a band on a membrane.

For another assay, the system named is HCT116 cells. Nature of the assay: FACS cell cycle analysis (propidium iodide), HCT116 cells. The conditions noted are these: 25 μM, 24 hours. Type of assay: cell-based, human. The protocol:
FIG. 6. • A. COMPOUND 1 arrests cells in G1. FACS analysis was performed on SW480 (lower panel) and HCT116 (upper panel) cells treated for 24 hours with either COMPOUND 1 (25 μM) (right) or control (0.5% DMSO (left). 5.5×10^6 cells were fixed and stained with propidium iodide (PI). G0/G1, S, and G2/M are indicated by arrows. • B. COMPOUND 1 selectively activates caspases in colon carcinoma cell lines. SW480 and HCT116 (left graph) cells (10^5) along with the normal colonocytes, CCD18Co (right graph) were treated with either control (0.5% DMSO) or COMPOUND 1 (25 μM). 24 hours post treatment, cells were lysed and the caspase-3/7 enzymatic activities were measured. Relative fluorescence units (RFU) were calculated by subtracting the unit values of the blank (control, without cells) from the treated samples (COMPOUND 1 or control) and plotted.
For FACS analysis, approx. 5×10^6 cells from PNRI-treated or vehicle-treated were fixed with 70% chilled ethanol and stored at −20° C. for at least 30 minutes. […] 10,000 stained cells for each sample were acquired using Beckman Coulter EPICS XL-MCL Flow Cytometry and the percentage of cells in different phase of the cell cycle was determined by Expo32 ADC software (Coulter Corporation, Miami, Fla., 33196). […]

For `O=C1C(Cc2ccc(O)cc2)N2C(=O)CCN(C(=O)NCc3ccccc3)C2CN1Cc1cccc2ccccc12` (centres unmarked) [COMPOUND 1], in the assay with cyclin D1, the “Level of Cyclin D1 protein” value was “clear reduction”. In addition, the “Cell cycle distribution (DNA content by FACS)” value in the assay on HCT116 cells is on record as “increased accumulation at G1/S-phase”.

The record behind these values is patent US7531320B2, “Modulation of β-catenin/TCF-activated transcription” (priority 2003, dated 2009).
